The source of these data is paper PMC4867112 (Biochemistry, 2016).

One data set deals with T1, DREAM(Δ64) (Mus musculus, UniProt Q9QXT8).
T1 sequence (Q9QXT8 65-256): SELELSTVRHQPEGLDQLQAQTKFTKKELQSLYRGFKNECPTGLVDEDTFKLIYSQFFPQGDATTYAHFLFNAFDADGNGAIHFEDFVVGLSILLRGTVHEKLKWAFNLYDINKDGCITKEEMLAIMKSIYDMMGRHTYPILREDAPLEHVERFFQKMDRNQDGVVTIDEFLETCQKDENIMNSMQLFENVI
Kind of data set: Tb3+ luminescence decay titration. It is filed as binding.

Data set [1] deals with the molecule itself. Kind of data set: fluorescence anisotropy decay. (In general: In fluorescence polarisation assays a small probe gives low polarisation when free and higher when bound to something large.)

Usually Kd stands for a measure of binding affinity in units of concentration. A low value points to tighter binding. `O=C(Nc1cc(C(F)(F)F)cc(C(F)(F)F)c1)Nc1c(Br)cc(Br)cc1-c1nn[nH]n1` [NS5806, 1-[2,4-dibromo-6-(1H-tetrazol-5-yl)-phenyl]-3-(3,5-bis-trifluoromethyl-phenyl)urea] gave a Kd on DREAM(Δ64) of roughly 37 µM.

B1: DREAM(Δ64), mouse DREAM (downstream regulatory element antagonist modulator) construct lacking residues 1–64 (domain or fragment, UniProt Q9QXT8 65-256, looked up)
chain: T1 sequence (Q9QXT8 65-256)
The term stoichiometry N denotes a count of units in the complex or per binding partner. Take B1: the “stoichiometry N” value in data set [1] stood at 2.
